We go through 27 compounds from US7585871B2, “Phenanthridine carbonyl phenols” (Wyeth, priority 2004, dated 2009).

The structures appear in SMILES notation. pIC50: −log10 of the molar value.

The target in one data set is T1, human ERα (Homo sapiens, UniProt P03372).
T1 construct: expressed in transfected cells; host or cells: HAECT-1 cells (immortalized human aortic endothelial cells) infected with Ad5-wt-hERα adenovirus
T1 sequence (P03372 1-595): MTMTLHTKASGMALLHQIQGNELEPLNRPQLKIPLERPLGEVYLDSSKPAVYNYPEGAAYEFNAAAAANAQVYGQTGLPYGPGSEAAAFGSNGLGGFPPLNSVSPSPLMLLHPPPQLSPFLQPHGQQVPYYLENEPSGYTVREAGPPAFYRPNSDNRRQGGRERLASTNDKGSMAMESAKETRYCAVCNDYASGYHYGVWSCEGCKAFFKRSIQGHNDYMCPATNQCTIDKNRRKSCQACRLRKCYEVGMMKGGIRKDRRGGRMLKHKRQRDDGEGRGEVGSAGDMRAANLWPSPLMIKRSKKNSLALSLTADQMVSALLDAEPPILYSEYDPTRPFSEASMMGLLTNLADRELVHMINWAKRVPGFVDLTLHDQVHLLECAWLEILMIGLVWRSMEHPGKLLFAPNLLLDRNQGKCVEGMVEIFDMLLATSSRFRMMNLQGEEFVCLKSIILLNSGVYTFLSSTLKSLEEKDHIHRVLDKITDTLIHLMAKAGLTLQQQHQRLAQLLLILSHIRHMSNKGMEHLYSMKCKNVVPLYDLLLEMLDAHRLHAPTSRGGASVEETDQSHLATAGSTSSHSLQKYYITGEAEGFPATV
The experiment in a line: IL-6 luciferase (IL6-luc) assay in ERα infected HAECT-1 cells. Type of data set: cell-based. The settings on record: for pIC50: ERα infected HAECT-1 cells, IL-1β, Ad5-IL-6(1250 bp).Luc virus, 15-20 h; for IL6-luc (% E2): efficacy relative to E2, value in parentheses after the IC50. As for the experimental part: After four hours, cells were washed with EBM-BSA and incubated overnight in the same medium. Following overnight incubation, cells were washed with EBM-BSA and infected for 2 hours with 6 ml of a 1:10 dilution of Ad5-3x(NFκB).Luc virus (Adenovirus luciferase expression vector driven by 3 repeats of the MHC NFκb site 5′ to the thymidine kinase promoter) in EBM-BSA. After two hours, cells were washed and incubated at 34° C. for 1 hour. […] Control (no ER infection) cells were processed as above without Ad5-wt-hERα virus infection.
ERα infected HAECT-1 cells or control cells were thawed, diluted 42× in warm EBM-BSA, plated into 96-well plates at 0.1 ml/well and incubated for 4 h at 34° C. […] After 15-20 h, cells are lysed with 50 ul of Promega Cell Culture Lysis reagent for ˜5 min at room temp on shaker. After lysing, 15 ul of lysate is transferred to luminometer plates for luciferase determination. […] Creatine kinase was determined from the rate of increase in A340 following addition of 100 uL of CK assay reagent (Sigma, cat. No 47-10) to the remainder of the cell lysate.
For IC50 and EC50 calculations, mean IL-6, luciferase or CK values versus log10 of the compound concentration were fitted to a four parameter logistic equation. The IC50/EC50 value, ‘Hill slope’, upper and lower limits of the curve were iteratively estimated.

Usually pIC50 stands for the negative decadic logarithm of the IC50, by convention in mol/L. Read a high pIC50 as a low IC50. Turning to `C[C@@H]1c2cc(F)ccc2-c2ccccc2N1C(=O)c1cc(O)ccc1F` [Example 7, 4-fluoro-3-{[(6R)-8-fluoro-6-methylphenanthridin-5(6H)-yl]carbonyl}phenol], on human ERα, the pIC50 is 6.58 and the “IL6-luc (% E2)” value worked out at 70%.

What is called melting point is the temperature of the solid-liquid transition. Consider `C[C@@H]1c2cc(F)ccc2-c2ccc(F)cc2N1C(=O)c1ccc(O)cc1` (single isomer, unassigned) [Example 43], for which the melting point fell in the range of 138 to 140 °C. For the same compound, on human ERα, the negative-log IC50 (pIC50) is 8.82 and the “IL6-luc (% E2)” value was 147%.

`C[C@H]1c2cc(F)ccc2-c2ccccc2N1C(=O)c1ccc(O)c(F)c1` [Example 10, 2-fluoro-4-{[(6S)-8-fluoro-6-methylphenanthridin-5(6H)-yl]carbonyl}phenol]: at human ERα, the pIC50 is 5.83 and the “IL6-luc (% E2)” value is 68%.

On to `C[C@@H]1c2cc(F)ccc2-c2ccccc2N1C(=O)c1ccc(O)c(Br)c1` [Example 13, 2-bromo-4-{[(6R)-8-fluoro-6-methylphenanthridin-5(6H)-yl]carbonyl}phenol], for which, at human ERα, the pIC50 is 7.29 and the “IL6-luc (% E2)” value is listed as 102%.

`CC1c2ccccc2-c2ccc(Cl)cc2N1C(=O)c1ccc(O)cc1` (racemic) [Example 27, 4-[(3-chloro-6-methylphenanthridin-5(6H)-yl)carbonyl]phenol] showed a melting point of 165 to 165.9 °C.

For the compound `C[C@H]1c2cc(F)ccc2-c2ccccc2N1C(=O)c1cc(O)ccc1Br` [Example 16, 4-bromo-3-{[(6S)-8-fluoro-6-methylphenanthridin-5(6H)-yl]carbonyl}phenol], at human ERα, the pIC50 is 6.08 and the “IL6-luc (% E2)” value is 91%.

In the case of `C[C@H]1c2ccccc2-c2ccc(Cl)cc2N1C(=O)c1cccc(O)c1` [Example 26, 3-{[(6S)-3-chloro-6-methylphenanthridin-5(6H)-yl]carbonyl}phenol], at human ERα, the negative logarithm of the IC50 (pIC50) was 6.42 and the “IL6-luc (% E2)” value worked out at 49%.

The compound `CC[C@@H]1c2cc(F)ccc2-c2ccccc2N1C(=O)c1ccc(O)cc1` [Example 20, 4-{[(6R)-6-ethyl-8-fluorophenanthridin-5(6H)-yl]carbonyl}phenol] had a melting point of 105 to 106 °C. For the same compound, at human ERα, the pIC50 was 8.22 and the “IL6-luc (% E2)” value is on record as 95%.

`CCC1c2cc(F)ccc2-c2ccccc2N1C(=O)c1ccc(O)cc1F` (racemic) [Example 23, 4-[(6-ethyl-8-fluorophenanthridin-5(6H)-yl)carbonyl]-3-fluorophenol] gave a melting point of 109 to 111 °C. On human ERα, the negative-log IC50 (pIC50) was 9.00 and the “IL6-luc (% E2)” value is reported as 107%.

With `C[C@H]1c2cc(F)ccc2-c2ccccc2N1C(=O)c1ccc(O)cc1F` [Example 6, 3-fluoro-4-{[(6S)-8-fluoro-6-methylphenanthridin-5(6H)-yl]carbonyl}phenol], on human ERα, the pIC50 was 6.39 and the “IL6-luc (% E2)” value is on record as 90%.

With `CC[C@H]1c2cc(F)ccc2-c2ccccc2N1C(=O)c1ccc(O)cc1` [Example 19, 4-{[(6S)-6-ethyl-8-fluorophenanthridin-5(6H)-yl]carbonyl}phenol], the melting point lay within 103 to 104 °C. At human ERα, the pIC50 was 7.07 and the “IL6-luc (% E2)” value turned out to be 88%.

`CC1c2ccccc2-c2ccc(Cl)cc2N1C(=O)c1cccc(O)c1` (racemic) [Example 24, 3-[(3-chloro-6-methylphenanthridin-5(6H)-yl)carbonyl]phenol] gave a melting point of 176.2 to 177.9 °C.

In the case of `C[C@H]1c2ccccc2-c2ccc(F)cc2N1C(=O)c1ccc(O)cc1` (single isomer, unassigned) [Example 38], the melting point lay in the range of 236.6 to 237.8 °C.

As for `COc1cc(C(=O)N2c3ccccc3-c3ccc(F)cc3[C@H]2C)ccc1O` [Example 17, 4-{[(6R)-8-fluoro-6-methylphenanthridin-5(6H)-yl]carbonyl}-2-methoxyphenol], on human ERα, the pIC50 is 6.44 and the “IL6-luc (% E2)” value was 113%.

As for `C[C@@H]1c2cc(F)ccc2-c2ccccc2N1C(=O)c1cc(O)ccc1Br` [Example 15, 4-bromo-3-{[(6R)-8-fluoro-6-methylphenanthridin-5(6H)-yl]carbonyl}phenol], on human ERα, the pIC50 was 6.52 and the “IL6-luc (% E2)” value is on record as 76%.

Consider `C[C@H]1c2cc(F)ccc2-c2ccccc2N1C(=O)c1cccc(O)c1` [Example 2, 3-{[(6S)-8-fluoro-6-methylphenanthridin-5(6H)-yl]carbonyl}phenol], for which, on human ERα, the negative logarithm of the IC50 (pIC50) is 7.42 and the “IL6-luc (% E2)” value is 53%.

As to `C[C@H]1c2cc(F)ccc2-c2ccccc2N1C(=O)c1ccc(O)cc1` [Example 3, 4-{[(6S)-8-fluoro-6-methylphenanthridin-5(6H)-yl]carbonyl}phenol], at human ERα, the pIC50 is 6.38 and the “IL6-luc (% E2)” value worked out at 114%.

`CC1c2ccccc2-c2ccc(F)cc2N1C(=O)c1cccc(O)c1` (racemic) [Example 33, 3-[(3-fluoro-6-methylphenanthridin-5(6H)-yl)carbonyl]phenol] had a melting point of 163.9 to 165 °C.

Turning to `C[C@@H]1c2cc(F)ccc2-c2ccccc2N1C(=O)c1ccc(O)cc1F` [Example 5, 3-fluoro-4-{[(6R)-8-fluoro-6-methylphenanthridin-5(6H)-yl]carbonyl}phenol], on human ERα, the pIC50 is 8.05 and the “IL6-luc (% E2)” value is 97%.

The compound `C[C@H]1c2cc(F)ccc2-c2ccc(F)cc2N1C(=O)c1ccc(O)cc1` (single isomer, unassigned) [Example 44] registered a melting point of 135 to 138 °C. On human ERα, the pIC50 was 6.89 and the “IL6-luc (% E2)” value is listed as 132%.

As to `C[C@H]1c2ccccc2-c2ccc(Cl)cc2N1C(=O)c1ccc(O)cc1O` [Example 32, 4-{[(6S)-3-chloro-6-methylphenanthridin-5(6H)-yl]carbonyl}benzene-1,3-diol], on human ERα, the pIC50 is 6.10 and the “IL6-luc (% E2)” value amounted to 125%.

For the compound `C[C@@H]1c2ccccc2-c2ccc(Cl)cc2N1C(=O)c1ccc(O)cc1O` [Example 31, 4-{[(6R)-3-chloro-6-methylphenanthridin-5(6H)-yl]carbonyl}benzene-1,3-diol], on human ERα, the pIC50 is 8.52 and the “IL6-luc (% E2)” value is 87%.

Compound `C[C@H]1c2ccccc2-c2ccc(F)cc2N1C(=O)c1ccc(O)cc1O` (single isomer, unassigned) [Example 41] returned a melting point of 182 to 184 °C. In addition, at human ERα, the negative-log IC50 (pIC50) was 6.57 and the “IL6-luc (% E2)” value is given as 88%.

For `C[C@@H]1c2cc(F)ccc2-c2ccccc2N1C(=O)c1ccc(O)c(F)c1` [Example 9, 2-fluoro-4-{[(6R)-8-fluoro-6-methylphenanthridin-5(6H)-yl]carbonyl}phenol], on human ERα, the pIC50 is 7.51 and the “IL6-luc (% E2)” value is reported as 81%.

On to `C[C@@H]1c2ccccc2-c2ccc(F)cc2N1C(=O)c1cccc(O)c1` (single isomer, unassigned) [Example 34], for which, on human ERα, the pIC50 was 7.96 and the “IL6-luc (% E2)” value stood at 188%.

In turn, `CC1c2ccccc2-c2ccc(F)cc2N1C(=O)c1ccc(O)cc1` (racemic) [Example 36, 4-[(3-fluoro-6-methylphenanthridin-5(6H)-yl)carbonyl]phenol] displayed a melting point of 134.5 to 135 °C.

Take `C[C@@H]1c2cc(F)ccc2-c2ccccc2N1C(=O)c1ccc(O)cc1` [Example 1, 4-{[(6R)-8-fluoro-6-methylphenanthridin-5(6H)-yl]carbonyl}phenol]: on human ERα, the pIC50 was 8.30 and the “IL6-luc (% E2)” value was found to be 100%.
